Like-named read-outs stand apart in the source and are kept apart here.
Key:
[1] = system: giant foxtail; experiment: Test A pre-/postemergence herbicide test; type: in vivo, Setaria faberii; details: Setaria faberi, 240 h, 1000 g ai/ha, read-out: Plant response rating, Foxtail, Giant
Method in brief: (§1)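 Visual 0–100 ratings (100 = complete control) made about 10 days after treatment, greenhouse-held plants compared with untreated controls. Treatments: postemergence sprays on one- to two-leaf plants (2–10 cm tall) and preemergence directed soil sprays after planting in loam–sand, chemicals formulated in non-phytotoxic solvent containing surfactant.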

[2] = system: blackgrass; experiment: Test C pre-/postemergence herbicide test; type: in vivo, Alopecurus myosuroides
Method in brief: (§2)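 Greenhouse plants scored visually against untreated controls 13–15 days after treatment, 0 = no effect, 100 = complete control. Test chemicals in a non-phytotoxic solvent with surfactant were applied either to soil (loam/sand) at planting or to foliage of 1- to 4-leaf plants, 2–18 cm tall.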

[3] = system: wheat; experiment: Test A pre-/postemergence herbicide test; type: in vivo, Triticum aestivum; details: Triticum aestivum, 240 h, 1000 g ai/ha, read-out: Plant response rating, Wheat
Method in brief: as §1

[4] = system: corn; experiment: Test C pre-/postemergence herbicide test; type: in vivo, Zea mays
From the text: (§3) Seeds of plant species selected from blackgrass (Alopecurus myosuroides), ryegrass, Italian (Italian ryegrass, Lolium multiflorum), wheat (winter wheat, Triticum aestivum), galium (catchweed bedstraw, Galium aparine), corn (Zea mays), crabgrass, large (large crabgrass, Digitaria sanguinalis), foxtail, giant (giant foxtail, Setaria faberii), johnsongrass (Sorghum halepense), lambsquarters (Chenopodium album), morningglory (Ipomoea coccinea), nutsedge, yellow (yellow nutsedge, Cyperus esculentus), pigweed (Amaranthus retroflexus), ragweed (common ragweed, Ambrosia elatior), soybean (Glycine max), barnyardgrass (Echinochloa crus-galli), oilseed rape (Brassica napus), waterhemp (common waterhemp, Amaranthus rudis), kochia (Kochia scoparia), oat, wild (wild oat, Avena fatua), surinam grass (Brachiaria decumbens), foxtail, green (green foxtail, Setaria viridis), goosegrass (Eleusine indica), bromegrass, downy (downy bromegrass, Bromus tectorum), nightshade (eastern black nightshade, Solanum ptycanthum), cocklebur (common cocklebur, Xanthium strumarium), cupgrass, woolly (woolly cupgrass, Eriochloa villosa), bermudagrass (Cynodon dactylon), sunflower, (common oilseed sunflower, Helianthus annuus), Russian thistle (Salsola kali) and velvetleaf (Abutilon theophrasti) were planted into a blend of loam soil and sand and treated preemergence with test chemicals formulated in a non-phytotoxic solvent mixture which included a surfactant. At the same time, plants selected from these crop and weed species and also barley (winter barley, Hordeum vulgare), […]), chickweed (common chickweed, Stellaria media), deadnettle (henbit deadnettle, Lamium amplexicaule), and canarygrass (littleseed canarygrass, Phalaris minor) were planted in pots containing Redi-Earth® planting medium (Scotts Company, 14111 Scottslawn Road, Marysville, Ohio 43041) comprising spaghnum peat moss, vermiculite, wetting agent and starter nutrients and treated with postemergence applications of test chemicals formulated in the same manner. Plants ranged in height from 2 to 18 cm (1- to 4-leaf stage) for postemergence treatments. Treated plants and controls were maintained in a greenhouse for 13 to 15 days, after which time all species were compared to controls and visually evaluated. Plant response ratings, summarized in Table C, are based on a scale of 0 to 100 where 0 is no effect and 100 is complete control. A dash (-) response means no test result.

[5] = system: galium; experiment: Test C pre-/postemergence herbicide test; type: in vivo, Galium aparine
Method in brief: as §2

[6] = system: ragweed; experiment: Test C pre-/postemergence herbicide test; type: in vivo, Ambrosia elatior
From the text: as §3

[7] = system: johnsongrass; experiment: Test C pre-/postemergence herbicide test; type: in vivo, Sorghum halepense
Method in brief: as §2

[8] = system: corn; experiment: Test A pre-/postemergence herbicide test; type: in vivo, Zea mays; details: Zea mays, 240 h, 1000 g ai/ha
Method in brief: as §1

[9] = system: foxtail, giant; experiment: Test C pre-/postemergence herbicide test; type: in vivo, Setaria faberii
From the text: as §3

[10] = post-emergence, Postemergence, 0 to 100 scale (0 no effect, 100 complete control)
[11] = pre-emergence, Preemergence, visual rating on 0 to 100 scale (0 no effect, 100 complete control), approx. 10 days
[12] = Postemergence, 31 g ai/ha, scale 0 (no effect) to 100 (complete control)
[13] = Postemergence, 62 g ai/ha, scale 0 to 100 (0 no effect, 100 complete control)
[14] = Postemergence, 125 g ai/ha, scale 0 to 100 (0 no effect, 100 complete control)
[15] = Postemergence, 250 g ai/ha, scale 0 to 100 (0 no effect, 100 complete control)
[16] = Preemergence, 62 g ai/ha, scale 0 to 100
[17] = Preemergence, 125 g ai/ha, scale 0 to 100 (0 no effect, 100 complete control)
[18] = Preemergence, 31 g ai/ha, scale 0 to 100 (0 no effect, 100 complete control)
[19] = Preemergence, 250 g ai/ha, scale 0 to 100 (0 no effect, 100 complete control)

## O=C1NCC(c2ccc(F)c(F)c2)C1C(=O)Nc1cccc(F)c1F (centres unmarked) [Compound 17, N-(2,3-difluorophenyl)-4-(3,4-difluorophenyl)-2-oxo-3-pyrrolidinecarboxamide]
[1]; [10]
  pest or weed control at 1000 g/ha: 90%
[1]; [11]
  pest or weed control at 1000 g/ha: 90%
[2]; [12]
  Plant response rating, Blackgrass: 0
[2]; [13]
  Plant response rating, Blackgrass: 0
[2]; [14]
  Plant response rating, Blackgrass: 0
[2]; [15]
  Plant response rating, Blackgrass: 0
[2]; [16]
  Plant response rating, Blackgrass: 50
[2]; [17]
  Plant response rating, Blackgrass: 80
[2]; [18]
  Blackgrass plant response rating: 5
[2]; [19]
  Plant response rating, Blackgrass: 95
[3]; [10]
  plant injury at 1000 g/ha: 60%
[3]; [11]
  plant injury at 1000 g/ha: 70%
[4]; [12]
  Plant response rating, Corn: 0
[4]; [13]
  Plant response rating, Corn: 0
[4]; [14]
  Plant response rating, Corn: 0
[4]; [15]
  Plant response rating, Corn: 0
[4]; [16]
  Plant response rating, Corn: 0
[4]; [17]
  Plant response rating, Corn: 30
[4]; [18]
  Corn plant response rating: 0
[4]; [19]
  Plant response rating, Corn: 70
[5]; [12]
  Plant response rating, Galium: 0
[5]; [13]
  Plant response rating, Galium: 0
[5]; [14]
  Plant response rating, Galium: 0
[5]; [15]
  Plant response rating, Galium: 0
[5]; [16]
  Plant response rating, Galium: 70
[5]; [17]
  Plant response rating, Galium: 70
[5]; [18]
  Galium plant response rating: 0
[5]; [19]
  Plant response rating, Galium: 90
[6]; [12]
  Plant response rating, Ragweed: 0
[6]; [13]
  Plant response rating, Ragweed: 0
[6]; [14]
  Plant response rating, Ragweed: 0
[6]; [15]
  Plant response rating, Ragweed: 0
[6]; [16]
  Plant response rating, Ragweed: 0
[6]; [17]
  Plant response rating, Ragweed: 30
[7]; [12]
  Plant response rating, Johnsongrass: 0
[7]; [13]
  Plant response rating, Johnsongrass: 0
[7]; [14]
  Plant response rating, Johnsongrass: 0
[7]; [15]
  Plant response rating, Johnsongrass: 0
[7]; [16]
  Plant response rating, Johnsongrass: 5
[7]; [17]
  Plant response rating, Johnsongrass: 65
[8]; [10]
  Corn plant response rating (crop injury, 0 = no effect, 100 = complete kill) at 1000 g/ha: 60%
[8]; [11]
  Corn plant response rating (crop injury, 0 = no effect, 100 = complete kill) at 1000 g/ha: 60%
[9]; [12]
  Plant response rating, Foxtail, Giant: 0
[9]; [13]
  Plant response rating, Foxtail, Giant: 0
[9]; [14]
  Plant response rating, Foxtail, Giant: 0
[9]; [15]
  Plant response rating, Foxtail, Giant: 10
[9]; [16]
  Plant response rating, Foxtail, Giant: 95
[9]; [17]
  Plant response rating, Foxtail, Giant: 100
[9]; [18]
  Foxtail, Giant plant response rating: 90
[9]; [19]
  Plant response rating, Foxtail, Giant: 100
